Experiments:
[1] = system: E2F1 in normal colon cells (NCM460); experiment: E2F1 level in whole cell extracts, SDS/PAGE and enhanced chemiluminescence, normal colon cells; format: cell-based, human; settings: NCM460, 2 μM, 20 minute to 4 hour exposures
Method: Human colon cancer cells (SW480) and normal colon cells (NCM460) are treated with β-lapachone at a concentration of 2 μM and are harvested after 20 minute, 1 hour, 2 hour, or 4 hour exposures. Whole cell extracts are prepared and resolved by SDS/PAGE. An enhanced chemiluminescence assay system (Amersham Pharmacia) is used to determine the E2F1 level. Monoclonal antibody against […] is obtained from Santa Cruz Biotechnology (Santa Cruz, Calif.). […] Elevation of E2F1 following exposure to β-lapachone persists through cell death in cancer cells.

[2] = system: C57BL/6J inbred strain female mice; experiment: Radiation-induced leukopenia after whole body irradiation, leukocyte count (Example 8); format: in vivo; settings: for L % (percentage of lymphocytes) / M % (percentage of monocytes) / N % (percentage of neutrophils) / WBC: 40 mg/kg i.p. 0.5 hour before 8 Gy
Method: The effect of β-lapachone pre-treatment on radiation-induced leukopenia (e.g., radiation-induced neutropenia, monocytopenia, or lymphocytopenia, or subcombinations thereof) following whole body gamma irradiation in mice, with and without pretreatment with β-lapachone, is assessed as follows. β-lapachone is prepared at 10 mg/ml in 40% hydroxypropyl-beta-cyclodextrin (HPBCD). C57BL/6J inbred strain female mice (4-5 weeks old) are organized into three groups of six mice each: Group I mice receive no radiation, no β-lapachone, and no carrier; Group II mice receive radiation and are injected with carrier (40% HPBCD 4 ml/kg body weight); and Group III mice are injected intraperitoneally at 0.5 hour before irradiation with β-lapachone (40 mg/kg body weight). Whole body irradiation of animals with 8 Gy (lethal radiation) or 5 Gy (sublethal radiation) of γ-rays is carried out in air at room temperature in a gamma chamber (Gammacell 40 Exactor), with a dose-rate of 1.05 Gy/min. This radiation dose is within the range of equivalent human exposures predicted in many scenarios of radiologic or nuclear terrorist attack. Following irradiation, animals are maintained in a climate-controlled animal facility. Three mice in each of Groups I, II, and III are sacrificed on day five following irradiation, and an analysis of radiation-induced leukopenia is performed for each. The remaining mice are sacrificed on day eight following irradiation, and an analysis of radiation-induced leukopenia is performed for each. Leukocytes are counted automatically using a hemacytometer counter in the animal facility at MIT.

In the case of `CC1(C)CCC2=C(O1)c1ccccc1C(=O)C2=O` [β-lapachone, 3,4-dihydro-2,2-dimethyl-2H-naphtho[1,2-b]pyran-5,6-dione], the E2F1 level [1] is reported as “not in similarly treated normal human colon cells”, the “L % (percentage of lymphocytes)” value ([2]; Day 5) is reported as 66.24% and the “M % (percentage of monocytes)” value ([2]; Day 5) is reported as 8.13%. The “N % (percentage of neutrophils)” value ([2]; Day 5) was 19.1%, the WBC ([2]; Day 5) was 0.53 ± 0.4 1000 cells/ml and the “L % (percentage of lymphocytes)” value ([2]; Day 8) was 52.69%. The “M % (percentage of monocytes)” value ([2]; Day 8) was 13.23%, the “N % (percentage of neutrophils)” value ([2]; Day 8) was 20.29% and the WBC ([2]; Day 8) was 0.37 ± 0.24 1000 cells/ml. For the same molecule, the “Protection against radiation-induced neutropenia, monocytopenia, and lymphocytopenia” value ([2]; pretreatment, 8 Gy, day 5 and day 8, P<0.05) was “partially protects”.
